Data as given in patent US4248865A, “Novel aminoglycoside derivatives” (Shionogi & Co., Ltd., priority 1978, dated 1981).
Values after ≈ are worked out from the molar mass of the structure shown.

What was measured:
[1] = tested on: Pseudomonas aeruginosa PP-6; assay: MIC by agar dilution method, Pseudomonas aeruginosa PP-6; details: PP6, read-out: Minimum Inhibitory Concentration (MIC)
Description: (§1) MIC was determined by the following agar dilution method.
(§2) One loopful of a strain of bacteria to be tested on agar slant was inoculated into a medium for growth of inoculum (Trypto Soy Broth; Eiken Chemical Co.) and incubated at 37° C. overnight.
(§3) A sample solution of aminoglycoside derivative was subjected to serial two-fold dilutions with sterile water. This diluted sample solutions were distributed to the Modified Mueller Hinton Agar medium (Nissui-seiyaku Co.), mixed gently and allowed to solidify.
(§4) One loopful of the bacterial suspension prepared in (1) was placed on the surface of the medium prepared in (2) containing the aminoglycoside derivative in various concentrations at 10^6 CFU/ml inoculum size.

[2] = tested on: Klebsiella pneumoniae K1-168; assay: MIC by agar dilution method, Klebsiella pneumoniae K1-168; details: K1168, read-out: Minimum Inhibitory Concentration (MIC)
Description: as §1, §2, §3, §4

[3] = tested on: Escherichia coli W-677/JR 762; assay: MIC by agar dilution method, Escherichia coli W-677/JR 762; details: W677/JR762, read-out: Minimum Inhibitory Concentration (MIC)
Description: as §1, §2, §3, §4

SMILES	MIC [1] [mg/L]	MIC [2] [mg/L]	MIC [3] [mg/L]
NC[C@H]1O[C@H](O[C@H]2[C@H](O)[C@@H](O[C@H]3O[C@H](CO)[C@@H](O)[C@H](N)[C@H]3O)[C@H](N)C[C@@H]2N)[C@H](N)C[C@@H]1O [TOB, tobramycin, reference compound]	> 100	100 (≈ 214 µM)	50 (≈ 107 µM)
NC[C@H]1O[C@H](O[C@H]2[C@H](O)[C@@H](O[C@H]3O[C@H](CO)[C@@H](O)[C@H](N)[C@H]3O)[C@H](NC3=NCC[C@@H]3O)C[C@@H]2N)[C@H](N)C[C@@H]1O [[A], 1N-[(S)(-)-3-hydroxy-1-pyrrolin-2-yl]tobramycin]	3.1 (≈ 5.63 µM)	3.1 (≈ 5.63 µM)	12.5 (≈ 22.7 µM)
NC[C@H]1O[C@H](O[C@H]2[C@H](O)[C@@H](O[C@H]3O[C@H](CO)[C@@H](O)[C@H](N)[C@H]3O)[C@H](NC3=NCCC[C@@H]3O)C[C@@H]2N)[C@H](N)C[C@@H]1O [[B], 1N-[(S)(-)-3-hydroxy-3,4,5,6-tetrahydropyridin-2-yl]tobramycin]	6.2 (≈ 11 µM)	3.1 (≈ 5.49 µM)	12.5 (≈ 22.1 µM)
